Key:
[1] = species: Homo sapiens; assay: Selectivity ratio Ki for mu-opioid receptor (unknown origin) to Ki for delta-opioid receptor (unknown origin)
[2] = target: T1, Delta-type opioid receptor (Homo sapiens, UniProt P41143); assay: Agonist activity at delta-opioid receptor (unknown origin) by [35S]GTPgammaS binding assay; type: functional
[3] = target: T1, Delta-type opioid receptor; assay: Displacement of [3H]DPDPE from delta-opioid receptor (unknown origin)
[4] = target: T2, Kappa-type opioid receptor (Homo sapiens, UniProt P41145); assay: Agonist activity at kappa-opioid receptor (unknown origin) by [35S]GTPgammaS binding assay
[5] = target: T3, Mu-type opioid receptor (Homo sapiens, UniProt P35372); assay: Agonist activity at mu-opioid receptor (unknown origin) by [35S]GTPgammaS binding assay; type: functional
[6] = species: Homo sapiens; assay: Selectivity ratio Ki for kappa-opioid receptor (unknown origin) to Ki for delta-opioid receptor (unknown origin)
[7] = target: T3, Mu-type opioid receptor; assay: Displacement of [3H]DAMGO from mu-opioid receptor (unknown origin)
[8] = target: T2, Kappa-type opioid receptor; assay: Displacement of [3H]U-69593 from kappa-opioid receptor (unknown origin)

T2 sequence (P41145 whole entry): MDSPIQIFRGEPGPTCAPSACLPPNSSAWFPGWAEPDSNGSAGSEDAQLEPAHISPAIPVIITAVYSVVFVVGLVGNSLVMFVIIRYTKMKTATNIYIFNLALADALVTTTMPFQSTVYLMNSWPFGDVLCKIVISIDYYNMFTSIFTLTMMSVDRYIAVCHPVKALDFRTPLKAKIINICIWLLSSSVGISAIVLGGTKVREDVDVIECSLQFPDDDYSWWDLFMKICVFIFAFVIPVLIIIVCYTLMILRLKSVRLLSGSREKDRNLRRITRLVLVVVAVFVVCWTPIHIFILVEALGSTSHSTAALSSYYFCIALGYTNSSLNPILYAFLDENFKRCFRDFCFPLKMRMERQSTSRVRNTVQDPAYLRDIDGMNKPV
T1 sequence (P41143 whole entry): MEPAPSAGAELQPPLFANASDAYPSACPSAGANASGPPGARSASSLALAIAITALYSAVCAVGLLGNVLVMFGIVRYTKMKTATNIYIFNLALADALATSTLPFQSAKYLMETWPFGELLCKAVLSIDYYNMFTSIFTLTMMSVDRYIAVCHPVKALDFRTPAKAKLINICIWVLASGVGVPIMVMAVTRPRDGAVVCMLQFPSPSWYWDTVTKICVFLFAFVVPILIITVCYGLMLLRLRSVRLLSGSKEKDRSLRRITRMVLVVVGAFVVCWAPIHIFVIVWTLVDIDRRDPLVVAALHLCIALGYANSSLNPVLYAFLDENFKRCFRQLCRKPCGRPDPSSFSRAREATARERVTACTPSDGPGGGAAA
T3 sequence (P35372 whole entry): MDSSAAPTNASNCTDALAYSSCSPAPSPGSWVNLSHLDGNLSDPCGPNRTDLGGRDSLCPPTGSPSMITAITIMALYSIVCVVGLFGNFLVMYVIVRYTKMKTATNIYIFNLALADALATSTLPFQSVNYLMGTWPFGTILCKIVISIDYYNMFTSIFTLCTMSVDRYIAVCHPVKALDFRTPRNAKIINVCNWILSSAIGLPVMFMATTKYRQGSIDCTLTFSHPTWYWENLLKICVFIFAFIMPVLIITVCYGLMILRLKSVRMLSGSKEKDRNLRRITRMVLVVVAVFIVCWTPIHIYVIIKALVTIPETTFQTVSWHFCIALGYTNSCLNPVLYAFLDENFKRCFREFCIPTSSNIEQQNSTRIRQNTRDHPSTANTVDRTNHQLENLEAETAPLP

Oc1ccc2c(c1)[C@]13CCN(CC4CC4)C[C@@]1(C2)Cc1cc2ccccc2nc1C3
Ratio Ki [1]: 119 | EC50 [2]: 2.5 nM | Emax [2]: 88% | Ki [3]: 0.941 nM | EC50 [4]: 836 nM | EC50 [5]: 197 nM | Emax [5]: 56% | Ratio Ki [6]: 89.9 | Ki [7]: 112 nM | Ki [8]: 84.6 nM

CN1CC[C@]23Cc4nc5ccccc5cc4C[C@]2(Cc2ccc(O)cc23)C1
Ratio Ki [1]: 1.63 | Ki [3]: 1.88 nM | Ratio Ki [6]: 104 | Ki [7]: 3.06 nM | Ki [8]: 195 nM

Oc1ccc2c(c1)[C@]13CCN(CC4(O)CC4)C[C@@]1(C2)Cc1cc2ccccc2nc1C3
Ratio Ki [1]: 378 | Ki [3]: 1.1 nM | Ratio Ki [6]: 801 | Ki [7]: 415 nM | Ki [8]: 879 nM

O=C1CC[C@@]23Cc4ccc(O)cc4[C@@]2(CCN(CC2CC2)C3)C1
Ki [3]: 448 nM | Ki [7]: 58.2 nM | Ki [8]: 17.4 nM

Oc1ccc2c(c1)[C@]13CCN(Cc4ccccc4)C[C@@]1(C2)Cc1cc2ccccc2nc1C3
Ratio Ki [1]: 2.42 | Ki [3]: 31.6 nM | Ratio Ki [6]: 18.8 | Ki [7]: 76.3 nM | Ki [8]: 594 nM
